Measured values as given in patent US10106582B2, “Complex-formation-modulating agents and uses therefor” (Factor Therapeutics Limited, priority 2012, dated 2018).

What was measured:
Assay type in all cases: cell-based, human
MCF-7 cells [1] = test: Transwell migration assay, IGF-I+IGFBP-3+VN (TRI)-stimulated MCF-7 cell migration
Experimental: FIG. 6 is a graphical representation showing MCF-7 cell migration in response to VN peptides. MCF-7 cells were seeded onto the upper-surface of a Transwell inserts coated on the under-surface with treatments containing IGF-I+IGFBP-3+VN (TRI; 10 nM) with or without increasing concentrations of either peptide P7, P8 or Pneg. Migration was assessed after 15 hours. Data is represented as percentage of change in migration compared to the TRI only control. Error bars indicate standard error mean.
This assay has been repeated three times with treatments tested in triplicate wells in each replicate experiment.
The breast cancer epithelial cell line MCF-7 was used for this assay. Migration was assessed by measuring relative number of cells migrating through 8-μm pore Transwell membranes in response to substrate-bond proteins complexes. IGFBP-3 was allowed to bind either peptide P7, P8 or a combination of P7 and P8 for 2 hours. IGF-I was later added to this protein mix which was then added to Transwells pre-coated with VN. Post-overnight incubation, unbound proteins were removed, Transwells washed twice and cells seeded onto the upper chamber. Cells migrated to the under-surface over 15 hours were indirectly quantified using crystal violet staining.

MCF-7 cells [2] = test: Transwell migration assay, IGF-I+IGFBP-5+VN trimeric complex-stimulated MCF-7 cell migration
Source text: Two motifs (motifs 1 and 8) within native VN, deemed potentially significant in supporting the binding of IGF-II, IGFBP-3 and IGFBP-5, were identified as outlined in the previous section. After preliminary in silico analyses motif 8 (J4-7) was deemed as potentially the most significant region within native VN supporting binding interactions of all the three IGF-II, IGFBP-3 and IGFBP-5 proteins and was chosen for the initial analyses. The VN-peptide covering the sequences of motif 8 was designed such that it covered all the 3AA frameshift sets that contributed to a positive spot within the motif 8 (see, FIG. 3 and Table 7). The sequence of this peptide is RVNLRTRRVDTVDPPYPRS [SEQ ID NO:100] and is designated P8. […] The sequence of that peptide is […] [SEQ ID NO:86] and is designated P7. […] The functional effects of these peptides on IGF-I:IGFBP:VN-stimulated breast cancer cell migration were investigated using Transwell® assays. Transwells® were pre-bound with VN, either alone or in combination with IGF-I and IGFBP-5 (TRI). Treatment with TRI supplemented with increasing concentrations of peptides P7 and/or P8 were assayed. TRI supplemented with Anlg or Neg peptide were included as positive and negative controls of migration inhibition, respectively. All unbound proteins were removed with washing and MCF-7 cell migration was assessed over 15 hours.
The Transwell® inserts were prepared by pre-binding the lower chamber and the under-surface of the 8-μm pore membranes with proteins as described below. For all 2D functional assays described throughout this study, including Transwell® the treatments for the pre-binding steps were VN, IGF-I+IGFBP-5+VN (TRI) complex, either alone or in combination with respective controls or VN-peptides. The concentrations of the proteins added into the culture wells were VN, 1 μg/mL; IGF-I, 30 ng/mL and IGFBP-5, 90 ng/mL, unless otherwise stated. The concentration of VN-peptides used are indicated where appropriate.
Optimal IGF-I:IGFBP-5:VN-mediated attachment and migration of MCF-7 cells in multiwell plates is obtained by pre-binding human native-IGF-I and/or IGFBP-5 and VN at concentrations of 30 ng/mL, 90 ng/mL and 1 μg/mL per well, respectively, to the lower chambers and under surfaces of Transwells®. […] For Anlg, concentrations varying from 30 ng/mL to 300 ng/mL were used.
Transwells® were prepared by pre-binding the test proteins, either alone or in combinations, to the lower chambers and under-surfaces of Transwells® following procedures previously described (Kricker et al., 2003). Briefly, 0.5 mL DMEM/F12 serum-free phenol-red free medium (SFM) containing 1 μg/mL VN was added to the lower chambers of 24-well, 8-μm pore Transwell® plates and incubated for 3 hours at 37° C. Unbound VN was removed and the wells were washed twice with 0.5 mL SFM+0.5% BSA following which 0.5 mL of SFM+0.5% BSA was placed in the lower chamber to block surfaces with no protein bound. To pre-bind growth factors, 0.5 mL SFM+0.05% BSA containing native IGF-I (30 ng/mL), IGFBP-5 (90 ng/mL) or Anlg, either alone or in combination, were added to the lower chambers of the Transwells® and incubated overnight at 4° C. The solution containing unbound growth factors was removed and the wells were washed twice with SFM+0.05% BSA and replaced with 0.5 mL of SFM+0.05% BSA. Throughout the pre-binding procedure care was taken to keep the upper surface of the Transwell® inserts dry.
Migration assays were essentially performed following protocols described previously in Leavesley et al 1993, J Cell Biol. 121:163-70. The cells in culture flasks were split 1:1, 24 hours prior to performing the migration assay. The cells were serum-starved for 4 hours and a cell suspension containing 6×10^4 cells in 200 μL SFM+0.05% BSA was seeded onto the upper-surface of the pre-coated Transwell® inserts and incubated for 15 hours at 37° C., 5% CO2 (refer to above for proteins pre-bound and concentrations used). […]

MCF-7 cells [3] = test: 3D Matrigel growth assay of MCF-7 tumor spheroids
Source text: FIG. 7 is a photographic and graphical representation showing MCF-7 3D cell growth in response to peptide antagonists. MCF-7 cells suspended in media containing 1% serum and 2.5% Matrigel (Matrigel media) were layered onto a thin layer of 100% Matrigel. Spheroids were allowed to form in Matrigel media containing VN, TRI or TRI supplemented with peptides P7 and P8. Cells were allowed to grow for 14 days with media+proteins changed every 3 days. (A) Phase contrast and fluorescence microscopy was used to obtain images of the spheroids treated with 90 nM P7, P8 or P7+8. The fluorescent images were subjected to analysis using Image J to calculate spheroid sizes. The images post-ImageJ analyses are depicted in the bottom panel of A. All the images depicted are representative images obtained from triplicate experiments with treatments tested in duplicates in each replicate experiment. Scale bar denotes 100 μm. (B) Scatter plot depicts mean spheroid size (μm^2) at Day 14 for each treatment, calculated using Image-J (90 nM peptide treatments are depicted here). Each data point in the graph is the average size of all spheroids present in a single field of view at 40× magnification. ** denotes p<0.01 and * denotes p<0.05. (C) To measure cell viability/proliferation the 3D culture was treated on Day 14 with 5% Alamar Blue dye for 4 hours and fluorescence intensities were recorded. Error bars indicate SEM. ** denotes p<0.01 Vs TRI and * denotes p<0.05 Vs TRI. The experiment was repeated twice with treatments tested in duplicate wells in each replicate experiment. TRI=IGF-I:IGFBP-5:VN trimeric complex (equimolar at 10 nM concentrations).
To closely mimic in vivo conditions, cells were grown in a 3D matrix (Matrigel) closely resembling in vivo extracellular matrix physiology. MCF-7 cells suspended in growth media containing 1% serum and 2.5% Matrigel (Matrigel media) were layered onto a thin layer of 100% Matrigel. Tumor spheroids were allowed to form for 3 days after which spent media was replenished with Matrigel media containing VN only, trimeric complex, or trimeric complex supplemented with increasing concentrations of peptides (P7, P8 or P7+P8). Cells were allowed to grow for additional 11 days with media+proteins changed every 3 days. Spheroid morphology was assessed using phase-contrast microscopy and cell viability was measured using AlamarBlue, a fluorescent metabolic dye.

RVNLRTRRVDTVDPPYPRS (listed as Homo sapiens) [Peptide P8, human VN motif 8 mimic]
Inhibition of TRI-stimulated MCF-7 cell migration (MCF-7 cells [1]; 30 nM peptide dose, TRI 10 nM, 15 hours (most significant inhibition)): returned to the ‘VN only’ treatment levels
Inhibition of TRI-stimulated MCF-7 cell migration (MCF-7 cells [1]; increasing peptide concentrations added to TRI (IGF-I+IGFBP-3+VN; 10 nM), 15 hours): dose dependent inhibition
MCF-7 cell migration (MCF-7 cells [2]; TRI supplemented with peptide at 3× molar concentration of IGFBP-5 (43 ng/mL P7, 38 ng/mL P8), 15 hours): 94.4±1 % of VN
MCF-7 cell migration (MCF-7 cells [2]; TRI supplemented with peptide at 9× molar concentration of IGFBP-5, 15 hours): 121.7±8 % of VN
TRI-stimulated cell viability (AlamarBlue) (MCF-7 cells [3]; 90 nM peptide, Day 14, 3D Matrigel culture): significantly inhibit
Spheroid size (ImageJ) versus control TRI treatment (MCF-7 cells [3]; 90 nM peptide, Day 14, phalloidin staining): highest inhibitory effects
Size of TRI-treated tumor spheroids (phase-contrast microscopy) (MCF-7 cells [3]; increasing concentrations of peptides, Matrigel 3D culture, 14 days): decrease with increasing concentrations
